This passage reports IC50 results from ChEMBL document CHEMBL5647690, “Inhibition of demethylases by GSK-J1/J4” (Nature, 2014).

Assay [1] addresses Lysine-specific demethylase 6A (Homo sapiens, UniProt O15550). The assay can be described thus: Inhibition of KDM6A (919 to 1401 residues)(unknown origin) by Alphalisa assay. On the technique in general: Alpha assays give light when donor and acceptor beads are brought close together.
Another assay deals with Macrophage. The assay can be described thus: Antiinflammatory activity against human primary macrophages assessed as inhibition of LPS-activated TNF-alpha production incubated for 6 hrs by ELISA. In kind it is functional, cell-based.
A short description of assay [2]: Inhibition of epitope-tagged KDM5B (1 to 752 residues)(unknown origin) transfected in human U2OS cells using H3K4me2 peptide as substrate. In kind it is cell-based.
Assay [3] deals with T1, Lysine-specific demethylase 4A (Homo sapiens, UniProt O75164).
T1 sequence (O75164 whole entry): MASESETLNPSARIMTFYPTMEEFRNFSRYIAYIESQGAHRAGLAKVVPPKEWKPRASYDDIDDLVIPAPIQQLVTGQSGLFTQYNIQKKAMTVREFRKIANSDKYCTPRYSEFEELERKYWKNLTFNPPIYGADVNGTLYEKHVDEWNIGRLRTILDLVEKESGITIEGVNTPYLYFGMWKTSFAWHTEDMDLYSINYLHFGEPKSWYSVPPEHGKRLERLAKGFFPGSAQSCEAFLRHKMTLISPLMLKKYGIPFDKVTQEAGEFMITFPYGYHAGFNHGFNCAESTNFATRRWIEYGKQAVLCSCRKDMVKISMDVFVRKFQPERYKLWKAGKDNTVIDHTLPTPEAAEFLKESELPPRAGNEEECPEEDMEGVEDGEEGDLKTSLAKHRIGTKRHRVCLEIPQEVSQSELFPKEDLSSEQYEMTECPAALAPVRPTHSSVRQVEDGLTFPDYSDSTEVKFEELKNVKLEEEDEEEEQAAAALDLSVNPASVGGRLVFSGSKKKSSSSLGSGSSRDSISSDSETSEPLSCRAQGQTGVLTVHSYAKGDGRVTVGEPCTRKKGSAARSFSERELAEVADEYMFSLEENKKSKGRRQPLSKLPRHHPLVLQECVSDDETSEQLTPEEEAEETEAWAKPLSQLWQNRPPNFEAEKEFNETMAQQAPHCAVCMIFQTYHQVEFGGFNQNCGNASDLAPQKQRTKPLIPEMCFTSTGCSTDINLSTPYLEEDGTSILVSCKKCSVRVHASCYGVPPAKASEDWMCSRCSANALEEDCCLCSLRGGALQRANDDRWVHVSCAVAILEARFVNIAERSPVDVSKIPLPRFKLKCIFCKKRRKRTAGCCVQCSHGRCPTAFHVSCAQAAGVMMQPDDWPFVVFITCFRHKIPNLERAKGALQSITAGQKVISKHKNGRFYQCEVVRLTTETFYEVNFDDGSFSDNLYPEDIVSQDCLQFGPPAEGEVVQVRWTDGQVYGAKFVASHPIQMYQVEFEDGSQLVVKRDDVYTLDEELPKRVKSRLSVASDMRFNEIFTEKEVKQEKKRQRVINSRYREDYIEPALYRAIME
Kind of assay: Inhibition of KDM4A (1 to 350 residues)(unknown origin) by Alphalisa assay.

For assay [4], the target named is Lysine-specific demethylase 5B (Homo sapiens, UniProt Q9UGL1). Kind of assay: Inhibition of KDM5B (1 to 809 residues)(unknown origin) by Alphalisa assay.
For assay [5], the target named is T2, Lysine-specific demethylase 4B (Homo sapiens, UniProt O94953).
T2 sequence (O94953 whole entry): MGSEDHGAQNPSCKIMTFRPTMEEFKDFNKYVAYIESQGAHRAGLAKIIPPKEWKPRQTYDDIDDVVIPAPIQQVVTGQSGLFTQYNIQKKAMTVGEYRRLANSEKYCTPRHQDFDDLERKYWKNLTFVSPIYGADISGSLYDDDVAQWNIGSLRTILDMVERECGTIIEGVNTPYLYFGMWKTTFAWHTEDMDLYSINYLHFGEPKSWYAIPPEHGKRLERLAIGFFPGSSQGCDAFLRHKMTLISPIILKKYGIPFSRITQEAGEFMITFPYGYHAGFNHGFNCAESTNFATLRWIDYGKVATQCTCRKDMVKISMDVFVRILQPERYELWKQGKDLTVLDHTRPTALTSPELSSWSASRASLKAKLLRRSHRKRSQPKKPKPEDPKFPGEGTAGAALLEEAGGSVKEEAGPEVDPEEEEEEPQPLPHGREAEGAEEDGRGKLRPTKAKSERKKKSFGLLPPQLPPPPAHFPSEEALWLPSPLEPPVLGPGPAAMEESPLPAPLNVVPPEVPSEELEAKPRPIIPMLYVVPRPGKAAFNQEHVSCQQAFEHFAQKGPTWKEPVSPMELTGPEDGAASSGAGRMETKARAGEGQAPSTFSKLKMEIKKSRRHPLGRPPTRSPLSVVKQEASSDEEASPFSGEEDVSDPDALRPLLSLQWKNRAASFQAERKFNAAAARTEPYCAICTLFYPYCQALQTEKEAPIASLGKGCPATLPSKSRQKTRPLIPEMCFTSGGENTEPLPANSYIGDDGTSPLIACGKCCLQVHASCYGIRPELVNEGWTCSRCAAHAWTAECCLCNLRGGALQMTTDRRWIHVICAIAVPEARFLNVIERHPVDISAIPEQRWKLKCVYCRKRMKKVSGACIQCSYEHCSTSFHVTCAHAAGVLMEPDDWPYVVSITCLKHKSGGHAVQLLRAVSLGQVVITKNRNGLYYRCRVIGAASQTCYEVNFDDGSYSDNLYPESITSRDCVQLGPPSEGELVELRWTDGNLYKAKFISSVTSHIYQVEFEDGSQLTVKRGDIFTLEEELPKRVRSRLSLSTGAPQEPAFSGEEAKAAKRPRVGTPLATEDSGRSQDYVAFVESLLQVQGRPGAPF
Kind of assay: Inhibition of KDM4B (2 to 500 residues)(unknown origin) by Alphalisa assay.

In assay [6] the target is Lysine-specific demethylase 5A (Homo sapiens, UniProt P29375). Kind of assay: Inhibition of KDM5A (1 to 1090 residues)(unknown origin) by Alphalisa assay.
Chain of Lysine-specific demethylase 5A (P29375 whole entry, the tested form may be a part): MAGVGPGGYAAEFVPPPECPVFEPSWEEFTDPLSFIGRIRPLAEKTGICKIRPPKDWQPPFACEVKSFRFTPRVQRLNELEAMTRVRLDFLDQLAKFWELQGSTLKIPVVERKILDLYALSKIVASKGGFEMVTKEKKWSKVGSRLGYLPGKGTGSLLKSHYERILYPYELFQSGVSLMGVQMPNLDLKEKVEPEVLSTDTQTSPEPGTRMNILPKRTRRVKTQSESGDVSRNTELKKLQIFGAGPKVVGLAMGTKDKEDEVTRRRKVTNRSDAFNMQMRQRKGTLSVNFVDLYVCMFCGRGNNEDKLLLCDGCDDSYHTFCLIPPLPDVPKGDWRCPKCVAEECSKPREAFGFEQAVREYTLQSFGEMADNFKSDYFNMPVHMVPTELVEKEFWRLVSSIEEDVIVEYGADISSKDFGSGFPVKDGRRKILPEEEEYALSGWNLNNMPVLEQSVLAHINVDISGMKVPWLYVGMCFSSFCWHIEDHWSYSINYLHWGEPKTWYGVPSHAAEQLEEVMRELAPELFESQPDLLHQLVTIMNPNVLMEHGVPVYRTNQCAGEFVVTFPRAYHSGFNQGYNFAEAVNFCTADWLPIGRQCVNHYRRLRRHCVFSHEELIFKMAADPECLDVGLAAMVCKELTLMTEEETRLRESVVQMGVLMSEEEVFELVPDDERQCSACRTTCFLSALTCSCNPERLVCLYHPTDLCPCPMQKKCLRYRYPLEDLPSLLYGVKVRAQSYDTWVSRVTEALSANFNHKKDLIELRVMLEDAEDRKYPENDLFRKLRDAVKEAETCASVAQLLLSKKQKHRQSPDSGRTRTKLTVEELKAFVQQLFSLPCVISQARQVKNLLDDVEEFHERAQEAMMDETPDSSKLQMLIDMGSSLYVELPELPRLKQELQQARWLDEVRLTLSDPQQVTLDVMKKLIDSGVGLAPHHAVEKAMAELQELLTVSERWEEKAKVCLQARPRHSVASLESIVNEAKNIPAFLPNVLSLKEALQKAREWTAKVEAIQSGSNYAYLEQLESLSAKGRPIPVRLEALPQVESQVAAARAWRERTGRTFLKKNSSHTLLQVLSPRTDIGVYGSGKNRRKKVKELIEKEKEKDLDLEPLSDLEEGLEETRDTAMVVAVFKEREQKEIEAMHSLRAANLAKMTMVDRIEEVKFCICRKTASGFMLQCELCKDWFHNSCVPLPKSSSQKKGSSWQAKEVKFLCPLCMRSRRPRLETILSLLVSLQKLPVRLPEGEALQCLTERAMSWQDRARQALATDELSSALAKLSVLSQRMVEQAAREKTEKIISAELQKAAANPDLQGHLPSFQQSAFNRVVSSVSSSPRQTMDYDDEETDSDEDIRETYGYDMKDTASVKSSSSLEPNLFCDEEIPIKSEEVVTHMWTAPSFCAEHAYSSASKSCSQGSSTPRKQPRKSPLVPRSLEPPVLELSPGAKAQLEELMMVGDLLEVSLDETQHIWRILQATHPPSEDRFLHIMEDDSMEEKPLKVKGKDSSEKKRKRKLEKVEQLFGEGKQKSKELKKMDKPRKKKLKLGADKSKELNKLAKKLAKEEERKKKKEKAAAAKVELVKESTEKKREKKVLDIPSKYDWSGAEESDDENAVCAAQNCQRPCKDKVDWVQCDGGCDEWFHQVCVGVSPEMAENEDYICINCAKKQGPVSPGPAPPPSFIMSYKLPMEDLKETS

Chain of Lysine-specific demethylase 5B (Q9UGL1 whole entry, the tested form may be a part): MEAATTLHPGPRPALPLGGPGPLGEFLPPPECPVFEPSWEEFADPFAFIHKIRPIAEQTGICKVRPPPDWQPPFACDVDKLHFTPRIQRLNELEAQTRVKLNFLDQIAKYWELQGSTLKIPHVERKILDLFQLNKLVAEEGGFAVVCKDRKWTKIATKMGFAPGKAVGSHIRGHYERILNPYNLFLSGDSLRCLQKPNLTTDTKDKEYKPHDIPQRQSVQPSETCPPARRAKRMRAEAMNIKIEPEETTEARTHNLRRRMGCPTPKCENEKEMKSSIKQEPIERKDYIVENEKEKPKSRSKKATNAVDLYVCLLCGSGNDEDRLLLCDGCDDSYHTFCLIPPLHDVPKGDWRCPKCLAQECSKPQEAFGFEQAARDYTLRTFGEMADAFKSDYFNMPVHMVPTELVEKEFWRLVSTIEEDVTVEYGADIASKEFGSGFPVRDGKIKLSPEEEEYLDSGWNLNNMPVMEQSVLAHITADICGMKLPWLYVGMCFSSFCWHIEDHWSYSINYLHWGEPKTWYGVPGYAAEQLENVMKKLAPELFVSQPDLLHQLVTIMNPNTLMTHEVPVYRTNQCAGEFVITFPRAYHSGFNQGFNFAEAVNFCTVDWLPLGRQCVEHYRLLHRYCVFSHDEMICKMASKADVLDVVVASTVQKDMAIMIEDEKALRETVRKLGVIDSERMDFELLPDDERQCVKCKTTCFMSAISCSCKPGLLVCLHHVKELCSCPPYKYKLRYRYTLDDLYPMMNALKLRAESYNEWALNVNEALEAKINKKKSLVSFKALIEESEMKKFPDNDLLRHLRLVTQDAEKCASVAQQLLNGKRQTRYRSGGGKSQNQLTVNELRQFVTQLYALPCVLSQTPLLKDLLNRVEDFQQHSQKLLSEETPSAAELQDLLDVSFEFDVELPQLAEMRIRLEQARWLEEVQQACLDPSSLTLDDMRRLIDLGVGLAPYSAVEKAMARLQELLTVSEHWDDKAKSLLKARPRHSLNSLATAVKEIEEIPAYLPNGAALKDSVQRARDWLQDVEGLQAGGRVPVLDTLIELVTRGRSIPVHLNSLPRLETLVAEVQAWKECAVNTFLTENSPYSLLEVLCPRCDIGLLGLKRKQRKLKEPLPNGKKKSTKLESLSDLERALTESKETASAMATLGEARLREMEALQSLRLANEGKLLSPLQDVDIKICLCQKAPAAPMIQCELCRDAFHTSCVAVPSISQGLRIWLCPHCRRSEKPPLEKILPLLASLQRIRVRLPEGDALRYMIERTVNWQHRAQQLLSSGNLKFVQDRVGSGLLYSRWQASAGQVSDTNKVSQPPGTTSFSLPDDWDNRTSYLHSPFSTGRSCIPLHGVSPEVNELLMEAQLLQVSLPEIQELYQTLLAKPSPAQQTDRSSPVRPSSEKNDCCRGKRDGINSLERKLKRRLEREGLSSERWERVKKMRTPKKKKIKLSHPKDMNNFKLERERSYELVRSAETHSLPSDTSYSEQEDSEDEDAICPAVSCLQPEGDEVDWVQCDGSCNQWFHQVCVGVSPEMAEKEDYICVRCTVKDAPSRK
Chain of Lysine-specific demethylase 6A (O15550 whole entry, the tested form may be a part): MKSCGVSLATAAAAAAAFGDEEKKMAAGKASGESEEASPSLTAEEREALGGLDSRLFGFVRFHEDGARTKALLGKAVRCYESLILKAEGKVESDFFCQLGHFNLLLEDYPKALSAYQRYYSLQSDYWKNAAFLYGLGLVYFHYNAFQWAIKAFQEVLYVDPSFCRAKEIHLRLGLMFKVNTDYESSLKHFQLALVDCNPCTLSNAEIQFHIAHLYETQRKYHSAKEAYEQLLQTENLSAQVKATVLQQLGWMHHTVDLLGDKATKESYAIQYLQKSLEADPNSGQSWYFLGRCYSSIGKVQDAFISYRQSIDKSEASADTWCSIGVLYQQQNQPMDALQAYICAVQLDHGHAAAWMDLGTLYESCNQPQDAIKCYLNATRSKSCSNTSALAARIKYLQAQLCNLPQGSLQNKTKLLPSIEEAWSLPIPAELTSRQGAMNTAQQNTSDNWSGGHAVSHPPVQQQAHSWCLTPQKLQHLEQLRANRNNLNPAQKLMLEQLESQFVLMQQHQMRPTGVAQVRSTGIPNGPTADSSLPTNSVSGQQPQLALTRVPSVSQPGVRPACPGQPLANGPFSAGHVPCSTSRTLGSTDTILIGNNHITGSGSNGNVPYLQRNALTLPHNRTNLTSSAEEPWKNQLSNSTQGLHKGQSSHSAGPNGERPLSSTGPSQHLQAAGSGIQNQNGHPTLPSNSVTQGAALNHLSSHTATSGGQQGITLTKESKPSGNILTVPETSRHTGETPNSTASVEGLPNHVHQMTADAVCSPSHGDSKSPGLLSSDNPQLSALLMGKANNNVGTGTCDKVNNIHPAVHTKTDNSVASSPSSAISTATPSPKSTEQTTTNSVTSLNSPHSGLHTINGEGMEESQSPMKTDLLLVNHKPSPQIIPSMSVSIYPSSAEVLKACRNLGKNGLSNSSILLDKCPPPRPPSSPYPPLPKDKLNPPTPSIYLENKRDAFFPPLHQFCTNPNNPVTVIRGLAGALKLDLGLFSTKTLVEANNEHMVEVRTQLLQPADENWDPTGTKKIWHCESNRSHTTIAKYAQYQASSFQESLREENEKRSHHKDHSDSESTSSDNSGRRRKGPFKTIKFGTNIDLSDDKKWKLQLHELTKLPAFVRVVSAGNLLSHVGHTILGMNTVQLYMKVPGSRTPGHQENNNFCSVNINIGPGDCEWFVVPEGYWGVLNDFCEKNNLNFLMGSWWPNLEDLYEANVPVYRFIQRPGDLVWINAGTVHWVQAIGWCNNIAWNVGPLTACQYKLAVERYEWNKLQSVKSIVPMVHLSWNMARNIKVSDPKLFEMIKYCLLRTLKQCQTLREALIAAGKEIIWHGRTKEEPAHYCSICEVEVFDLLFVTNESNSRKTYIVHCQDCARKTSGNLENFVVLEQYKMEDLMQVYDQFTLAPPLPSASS

The IC50 is the concentration at which inhibition is half-maximal. Regarding `CCOC(=O)CCNc1cc(N2CCc3ccccc3CC2)nc(-c2ccccn2)n1`, the IC50 in assay [1] is 6.6 µM; with Macrophage it was 9 µM; in assay [2], 3.1 µM; in assay [3], 7.5 µM; in assay [4] it was 9.7 µM; in assay [5], 3.8 µM.

As for `O=C(O)CCNc1cc(N2CCc3ccccc3CC2)nc(-c2ccccn2)n1`, the IC50 in assay [1] was 0.053 µM; in assay [6] it was 6.8 µM; in assay [3], over 50 µM; in assay [4], 0.17 µM; in assay [5], 73 µM.
